Test results from the NIST ThermoML archive (doi:10.1016/j.jct.2016.01.019).
± gives the expanded uncertainty stated by the source.

What was measured:
[1] = xn = mol fraction of the nth substance listed; conditions: 94.64 kPa, Liquid, Vibrating tube method
[2] = refractive index (Na D-line) (dimensionless); xn = mol fraction of the nth substance listed; conditions: 94.64 kPa, Liquid, Standard Abbe refractometry

OCCCO [propan-1,3-diol] + CC(O)CO
Conditions	mass density, [1] [kg/m3]	refractive index, [2]
293.15 K, x2 = 0	1052.75 ± 3.2	1.43932 ± 0.002
293.15 K, x2 = 0.0985	1051.85 ± 3.2	1.43907 ± 0.002
293.15 K, x2 = 0.2023	1050.9 ± 3.2	1.43879 ± 0.002
293.15 K, x2 = 0.3015	1049.75 ± 3.2	1.43838 ± 0.002
293.15 K, x2 = 0.3961	1048.38 ± 3.2	1.4378 ± 0.002
293.15 K, x2 = 0.5009	1046.9 ± 3.2	1.43695 ± 0.002
293.15 K, x2 = 0.5961	1045.18 ± 3.2	1.436 ± 0.002
293.15 K, x2 = 0.6965	1043.35 ± 3.2	1.43508 ± 0.002
293.15 K, x2 = 0.7974	1041.33 ± 3.2	1.4342 ± 0.002
293.15 K, x2 = 0.8985	1038.71 ± 3.2	1.4331 ± 0.002
298.15 K, x2 = 0	1049.67 ± 3.2	1.43796 ± 0.002
298.15 K, x2 = 0.0985	1048.71 ± 3.2	1.4376 ± 0.002
298.15 K, x2 = 0.2023	1047.71 ± 3.2	1.43721 ± 0.002
298.15 K, x2 = 0.3015	1046.51 ± 3.2	1.43671 ± 0.002
298.15 K, x2 = 0.3961	1045.09 ± 3.2	1.43612 ± 0.002
298.15 K, x2 = 0.5009	1043.57 ± 3.2	1.43533 ± 0.002
298.15 K, x2 = 0.5961	1041.79 ± 3.2	1.43455 ± 0.002
298.15 K, x2 = 0.6965	1039.9 ± 3.2	1.43364 ± 0.002
298.15 K, x2 = 0.7974	1037.77 ± 3.2	1.43275 ± 0.002
298.15 K, x2 = 0.8985	1035.15 ± 3.2	1.43161 ± 0.002
303.15 K, x2 = 0	1046.55 ± 3.2	1.43665 ± 0.002
303.15 K, x2 = 0.0985	1045.54 ± 3.2	1.43619 ± 0.002
303.15 K, x2 = 0.2023	1044.49 ± 3.2	1.43572 ± 0.002
303.15 K, x2 = 0.3015	1043.23 ± 3.2	1.43521 ± 0.002
303.15 K, x2 = 0.3961	1041.76 ± 3.2	1.43459 ± 0.002
303.15 K, x2 = 0.5009	1040.18 ± 3.2	1.4339 ± 0.002
303.15 K, x2 = 0.5961	1038.34 ± 3.2	1.43318 ± 0.002
303.15 K, x2 = 0.6965	1036.39 ± 3.2	1.4321 ± 0.002
303.15 K, x2 = 0.7974	1034.25 ± 3.2	1.4311 ± 0.002
303.15 K, x2 = 0.8985	1031.52 ± 3.2	1.43017 ± 0.002
308.15 K, x2 = 0	1043.45 ± 3.2	1.43523 ± 0.002
308.15 K, x2 = 0.0985	1042.36 ± 3.2	1.43478 ± 0.002
308.15 K, x2 = 0.2023	1041.24 ± 3.2	1.43424 ± 0.002
308.15 K, x2 = 0.3015	1039.93 ± 3.2	1.43377 ± 0.002
308.15 K, x2 = 0.3961	1038.41 ± 3.2	1.43324 ± 0.002
308.15 K, x2 = 0.5009	1036.78 ± 3.2	1.43241 ± 0.002
308.15 K, x2 = 0.5961	1034.87 ± 3.2	1.43161 ± 0.002
308.15 K, x2 = 0.6965	1032.85 ± 3.2	1.43076 ± 0.002
308.15 K, x2 = 0.7974	1030.65 ± 3.2	1.42967 ± 0.002
308.15 K, x2 = 0.8985	1027.85 ± 3.2	1.42858 ± 0.002
313.15 K, x2 = 0	1040.32 ± 3.2	1.43385 ± 0.002
313.15 K, x2 = 0.0985	1039.16 ± 3.2	1.4333 ± 0.002
313.15 K, x2 = 0.2023	1037.97 ± 3.2	1.43276 ± 0.002
313.15 K, x2 = 0.3015	1036.61 ± 3.2	1.43207 ± 0.002
313.15 K, x2 = 0.3961	1035.02 ± 3.2	1.43145 ± 0.002
313.15 K, x2 = 0.5009	1033.34 ± 3.2	1.43061 ± 0.002
313.15 K, x2 = 0.5961	1031.36 ± 3.2	1.43 ± 0.002
313.15 K, x2 = 0.6965	1029.27 ± 3.2	1.42906 ± 0.002
313.15 K, x2 = 0.7974	1027.04 ± 3.2	1.42818 ± 0.002
313.15 K, x2 = 0.8985	1024.18 ± 3.2	1.42699 ± 0.002
318.15 K, x2 = 0	1037.18 ± 3.2	1.43255 ± 0.002
318.15 K, x2 = 0.0985	1035.96 ± 3.2	1.43195 ± 0.002
318.15 K, x2 = 0.2023	1034.7 ± 3.2	1.43131 ± 0.002
318.15 K, x2 = 0.3015	1033.26 ± 3.2	1.43057 ± 0.002
318.15 K, x2 = 0.3961	1031.62 ± 3.2	1.42992 ± 0.002
318.15 K, x2 = 0.5009	1029.89 ± 3.2	1.42921 ± 0.002
318.15 K, x2 = 0.5961	1027.83 ± 3.2	1.42848 ± 0.002
318.15 K, x2 = 0.6965	1025.68 ± 3.2	1.42752 ± 0.002
318.15 K, x2 = 0.7974	1023.38 ± 3.2	1.42653 ± 0.002
318.15 K, x2 = 0.8985	1020.43 ± 3.2	1.42545 ± 0.002
